A value given as a limit tells only on which side of the number the result lay.

T1 sequence (P13569 with tags, fused parts or gaps DEL508-508): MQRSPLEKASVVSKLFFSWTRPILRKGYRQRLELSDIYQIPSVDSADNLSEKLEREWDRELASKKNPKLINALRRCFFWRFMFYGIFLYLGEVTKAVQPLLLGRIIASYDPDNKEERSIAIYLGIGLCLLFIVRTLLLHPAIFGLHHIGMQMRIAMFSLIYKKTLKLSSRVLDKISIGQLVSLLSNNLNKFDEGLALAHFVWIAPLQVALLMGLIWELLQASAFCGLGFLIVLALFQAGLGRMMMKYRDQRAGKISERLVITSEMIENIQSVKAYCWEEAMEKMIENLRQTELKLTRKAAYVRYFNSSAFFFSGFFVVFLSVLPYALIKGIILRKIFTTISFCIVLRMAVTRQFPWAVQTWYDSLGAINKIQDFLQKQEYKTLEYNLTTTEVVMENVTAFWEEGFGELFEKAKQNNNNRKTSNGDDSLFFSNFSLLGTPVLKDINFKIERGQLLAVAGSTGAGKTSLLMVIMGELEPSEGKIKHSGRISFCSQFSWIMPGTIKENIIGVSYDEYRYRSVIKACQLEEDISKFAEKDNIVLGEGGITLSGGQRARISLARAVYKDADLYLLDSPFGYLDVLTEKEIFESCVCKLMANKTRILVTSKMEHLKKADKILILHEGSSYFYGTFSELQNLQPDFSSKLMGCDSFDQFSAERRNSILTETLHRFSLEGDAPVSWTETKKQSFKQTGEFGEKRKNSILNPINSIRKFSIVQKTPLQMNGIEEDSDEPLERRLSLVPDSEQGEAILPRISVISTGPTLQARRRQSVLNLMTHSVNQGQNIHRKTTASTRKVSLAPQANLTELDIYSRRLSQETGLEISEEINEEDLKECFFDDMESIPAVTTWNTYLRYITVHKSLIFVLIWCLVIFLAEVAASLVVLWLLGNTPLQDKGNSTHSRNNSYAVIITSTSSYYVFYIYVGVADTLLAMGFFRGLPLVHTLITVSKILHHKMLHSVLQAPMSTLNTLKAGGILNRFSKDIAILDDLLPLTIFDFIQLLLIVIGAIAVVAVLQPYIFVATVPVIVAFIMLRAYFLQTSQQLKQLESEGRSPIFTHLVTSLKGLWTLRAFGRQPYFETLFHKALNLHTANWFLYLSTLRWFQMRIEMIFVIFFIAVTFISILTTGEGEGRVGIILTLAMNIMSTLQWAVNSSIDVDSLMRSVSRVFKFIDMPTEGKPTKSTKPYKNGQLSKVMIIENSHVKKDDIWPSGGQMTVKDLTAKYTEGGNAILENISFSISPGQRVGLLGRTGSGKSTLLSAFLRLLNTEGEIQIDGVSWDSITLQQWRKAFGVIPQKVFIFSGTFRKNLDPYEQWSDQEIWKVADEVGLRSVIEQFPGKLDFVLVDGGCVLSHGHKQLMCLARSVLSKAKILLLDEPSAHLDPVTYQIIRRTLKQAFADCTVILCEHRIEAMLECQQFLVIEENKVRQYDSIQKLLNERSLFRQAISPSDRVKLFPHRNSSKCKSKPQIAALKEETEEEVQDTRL

The first experiment addresses T1, ΔF508-CFTR expressed in FRT epithelial cells (Homo sapiens, UniProt P13569, DEL508-508).
T1 construct: expressed in transfected cells; host or cells: Fisher rat epithelial (FRT) cells, vector-infected
Put plainly: Ussing chamber assay, short-circuit current in FRT epithelia. Format: cell-based. Conditions: genistein 50 μM added after forskolin 10 μM, n=8.
Description: FRT^ΔF508-CFTR epithelial cells grown on Costar Snapwell cell culture inserts were mounted in an Ussing chamber (Physiologic Instruments, Inc., San Diego, Calif.), and the monolayers were continuously short-circuited using a Voltage-clamp System (Department of Bioengineering, University of Iowa, Iowa, and, Physiologic Instruments, Inc., San Diego, Calif.). Transepithelial resistance was measured by applying a 2-mV pulse. […] Typical protocol utilized a basolateral to apical membrane Cl^− concentration gradient. To set up this gradient, normal ringers was used on the basolateral membrane and was permeabilized with nystatin (360 μg/ml), whereas apical NaCl was replaced by equimolar sodium gluconate (titrated to pH 7.4 with NaOH) to give a large Cl concentration gradient across the epithelium. All experiments were performed 30 min after nystatin permeabilization. The solutions were maintained at 27° C. and bubbled with air. The electrode offset potential and fluid resistance were corrected using a cell-free insert. Under these conditions, the current reflects the flow of Cl^− through ΔF508-CFTR expressed in the apical membrane. The ISC was digitally acquired using an MP100A-CE interface and AcqKnowledge software (version 3.2.6; BIOPAC Systems, Santa Barbara, Calif.). Forskolin (10 μM) and all test compounds were added to both sides of the cell culture inserts. […]
`O=c1c(-c2ccc(O)cc2)coc2cc(O)cc(O)c12` [genistein, reference compound]: the “ISC potentiated to” value is 21±1.5 μA/cm^2.

Staying with this experiment, now noted: no forskolin, data not shown.
In the case of `O=c1c(-c2ccc(O)cc2)coc2cc(O)cc(O)c12` [genistein, reference compound], the “stimulation of ISC when applied prior to forskolin addition” value is “did not stimulate”.

The next experiment deals with T2, ΔF508-CFTR stably expressed in NIH3T3 cells (Homo sapiens, UniProt P13569, DEL508-508).
T2 construct: expressed in transfected cells
T2 sequence (P13569 with tags, fused parts or gaps DEL508-508): as above
Put plainly: Membrane potential optical (FRET/VIPR) assay for ΔF508-CFTR potentiation. Format: cell-based.
Conditions: not given
An excerpt: Membrane potential optical methods for assaying ΔF508-CFTR potentiation properties of compounds.
These voltage sensitive assays are based on the change in fluorescence resonant energy transfer (FRET) between the membrane-soluble, voltage-sensitive dye, DiSBAC2(3), and a fluorescent phospholipid, CC2-DMPE, which is attached to the outer leaflet of the plasma membrane and acts as a FRET donor. Changes in membrane potential (Vm) cause the negatively charged DiSBAC2(3) to redistribute across the plasma membrane and the amount of energy transfer from CC2-DMPE changes accordingly. The changes in fluorescence emission were monitored using VIPR™ II, which is an integrated liquid handler and fluorescent detector designed to conduct cell-based screens in 96- or 384-well microtiter plates.
To identify potentiators of ΔF508-CFTR, a double-addition HTS assay format was developed (FIG. 1A). During the first addition, a Cl^−-free medium with or without test compound was added to each well. After 22 sec, a second addition of Cl^−-free medium containing 2-10 μM forskolin was added to activate ΔF508-CFTR. The extracellular Cl^− concentration following both additions was 28 mM, which promoted Cl^− efflux in response to ΔF508-CFTR activation and the resulting membrane depolarization was optically monitored using the FRET-based voltage-sensor dyes. The double-addition format has several advantages. First, it enables separation of compounds that act independently of forskolin-activated ΔF508-CFTR. Second, it allows compounds that act from the cytoplasmic surface of the channel to cross the plasma membrane and take effect. Lastly, fluorescent changes that arise from test compound addition alone can be identified.
High-throughput assay format for identifying potentiators of ΔF508-CFTR stably expressed in NIH3T3 cells.
FIG. 1A: Double-addition assay format in which Cl^−-free medium was added with or without the test compound prior to forskolin addition. The cells were incubated at 27° C. for 16-24 hr prior to use.
• Bath Solution #1: (in mM)NaCl 160, KCl 4.5, CaCl2 2, MgCl2 1, HEPES 10, pH 7.4 with NaOH. • Chloride-free bath solution: Chloride salts in Bath Solution #1 are substituted with gluconate salts. • CC2-DMPE: Prepared as a 10 mM stock solution in DMSO and stored at −20° C. • DiSBAC2(3): Prepared as a 10 mM stock in DMSO and stored at −20° C.
NIH3T3 mouse fibroblasts stably expressing ΔF508-CFTR are used for optical measurements of membrane potential. The cells are maintained at 37° C. in 5% CO2 and 90% humidity in Dulbecco's modified Eagle's medium supplemented with 2 mM glutamine, 10% fetal bovine serum, 1×NEAA, β-ME, 1×pen/strep, and 25 mM HEPES in 175 cm^2 culture flasks. For all optical assays, the cells were seeded at 30,000/well in 384-well matrigel-coated plates and cultured for 2 hrs at 37° C. before culturing at 27° C. for 24 hrs.
`O=c1c(-c2ccc(O)cc2)coc2cc(O)cc(O)c12` [genistein, reference compound]: the “effect on forskolin-induced membrane depolarization” value was “augmented”.

The experiment is the same for the next values; noted with them: NIH3T3, read-out: % Efficacy (relative modulating efficacy in comparison with genistein), normalized to peak genistein response.
As to `Cc1ccc(O)c(-c2cc(-c3ccccc3Oc3ccccc3)n[nH]2)c1` [IA-84], the Emax is 35 to 75%.

Turning to `Cc1cc(C)c(-c2cc(-c3cc(C)ccc3O)[nH]n2)c(C)c1` [IA-85], the Emax was in the range of 35 to 75%.

Consider `Cc1ccc(O)c(-c2cc(-c3cccnc3Sc3ccc(Cl)cc3)n[nH]2)c1` [IA-86], for which the Emax was in the range of 35 to 75%.

Turning to `Cc1ccc(O)c(-c2cc(-c3cccc([N+](=O)[O-])c3)n[nH]2)c1` [IA-87], the Emax was in the range of 35 to 75%.

Regarding `Oc1ccc(Cl)cc1-c1cc(-c2ccc(F)cc2)[nH]n1` [IA-88], the Emax was 35 to 75%.

In the case of `Cc1ccc(O)c(-c2cc(-c3cc(Cl)ccc3C(F)(F)F)n[nH]2)c1` [IA-89], the Emax lay in the range of 35 to 75%.

Regarding `Oc1ccc(Cl)cc1-c1cc(-c2ccc(C(F)(F)F)cc2)[nH]n1` [IA-90], the Emax fell in the range of 35 to 75%.

On to `Cc1ccc(O)c(-c2cc(C(Cc3ccccc3)NS(=O)(=O)c3cccc4ccccc34)n[nH]2)c1` (stereo not shown) [IA-91], for which the Emax lay within 35 to 75%.

For `Cc1cc(-c2cc(-c3cc(F)ccc3O)n[nH]2)c(C(F)(F)F)o1` [IA-92], the Emax was 35 to 75%.

For the compound `Cc1ccc(O)c(-c2cc(-c3ccncc3)n[nH]2)c1` [IA-93], the Emax fell in the range of 35 to 75%.

In the case of `COc1ccccc1-c1cc(-c2cc(C)ccc2O)[nH]n1` [IA-94], the Emax fell in the range of 35 to 75%.

On to `Cc1ccc(O)c(-c2cc(-c3nc(C)c(-c4ccc5c(c4)OCC5)s3)n[nH]2)c1` [IA-95], for which the Emax was 35 to 75%.

Take `O=[N+]([O-])c1ccccc1-c1cc(-c2ccccc2O)n[nH]1` [IA-97]: the Emax was 35 to 75%.

Take `Oc1ccccc1-c1cc(-c2ccc(C(F)(F)F)cc2F)n[nH]1` [IA-98]: the Emax lay within 35 to 75%.

For `COc1ccc(-c2cc(-c3cc(C)ccc3O)n[nH]2)c(F)c1` [IA-99], the Emax is 35 to 75%.

Turning to `COc1ccc(-c2cc(-c3ccc(C)cc3O)n[nH]2)cc1` [IA-100], the Emax was in the range of 35 to 75%.

Consider `CCOc1ncccc1-c1cc(-c2ccccc2O)[nH]n1` [IA-101], for which the Emax lay within 35 to 75%.

Consider `Cc1ccc(O)c(-c2cc(-c3ccc([N+](=O)[O-])cc3)n[nH]2)c1` [IA-102], for which the Emax fell in the range of 35 to 75%.

As for `Cc1ccc(O)c(-c2cc(-c3ccc(C(F)(F)F)cc3)[nH]n2)c1` [IA-103], the Emax is less than 35%.

For `Cc1ccc(O)c(-c2cc(-c3ccc(F)cc3)[nH]n2)c1` [IA-104], the Emax lay in the range of 35 to 75%.

As to `Cc1ccc(O)c(-c2cc(-c3c(Cl)cccc3Cl)n[nH]2)c1` [IA-105], the Emax was 35 to 75%.

Take `Cc1ccc(-c2cc(-c3cccc(F)c3)[nH]n2)c(O)c1` [IA-106]: the Emax lay within 35 to 75%.

Turning to `Cc1ccc(O)c(-c2cc(-c3cc(C)on3)n[nH]2)c1` [IA-107], the Emax lay within 35 to 75%.

`O=[N+]([O-])c1ccc(-c2cc(-c3cc(C(F)(F)F)ccc3O)[nH]n2)cc1` [IA-114]: the Emax fell in the range of 35 to 75%.

Regarding `Cc1ccc(O)c(-c2cc(-c3cc(Cl)ccc3F)n[nH]2)c1` [IA-115], the Emax was less than 35%.

Still in this experiment, the particulars now being: data not shown.
As for `O=c1c(-c2ccc(O)cc2)coc2cc(O)cc(O)c12` [genistein, reference compound], the “membrane potential response in the absence of forskolin addition” value is listed as “no response”.

The same experiment, now with this note: normalized to peak genistein response.
With `Oc1ccccc1-c1cc(-c2ccccc2Cl)[nH]n1` [IA-113], the “% Efficacy (relative modulating efficacy in comparison with genistein)” value is “+ (an efficacy range of <35% when compared to genistein)”.

Still in this experiment, the particulars now being: optical assay, n=35.
`O=c1c(-c2ccc(O)cc2)coc2cc(O)cc(O)c12` [genistein, reference compound]: the “potentiation of the forskolin-induced response” value came to 72.8±7.2%.

(Values after patent publication US20120184583A1, “MODULATORS OF ATP-BINDING CASSETTE TRANSPORTERS” (VERTEX PHARMACEUTICALS INCORPORATED, priority 2003, published 2012).)
